Results reported in US10399988B2, “4-aminopyrazolo[3,4-d]pyrimidinylazabicyclo derivatives and pharmaceutical composition comprising the same” (Daewoong Pharmaceutical Co., Ltd., priority 2016, dated 2019).
pIC50: −log10 of the molar value.

Experiments:
[1] = target: T1, ITK (Homo sapiens, UniProt Q08881); assay: Inhibitory activity against ITK (ADP-Glo + ITK Kinase enzyme system kit); selectivity BTK vs. ITK; type: biochemical; settings: for pIC50: ITK enzyme 0.4 ng/uL, ATP 25 uM, luminescence, duplicate; for Selectivity (based on IC50): selectivity for the inhibitory activity of BTK vs. ITK, Equation 1
T1 construct: purchased Promega Corporation
T1 sequence (Q08881 1-620): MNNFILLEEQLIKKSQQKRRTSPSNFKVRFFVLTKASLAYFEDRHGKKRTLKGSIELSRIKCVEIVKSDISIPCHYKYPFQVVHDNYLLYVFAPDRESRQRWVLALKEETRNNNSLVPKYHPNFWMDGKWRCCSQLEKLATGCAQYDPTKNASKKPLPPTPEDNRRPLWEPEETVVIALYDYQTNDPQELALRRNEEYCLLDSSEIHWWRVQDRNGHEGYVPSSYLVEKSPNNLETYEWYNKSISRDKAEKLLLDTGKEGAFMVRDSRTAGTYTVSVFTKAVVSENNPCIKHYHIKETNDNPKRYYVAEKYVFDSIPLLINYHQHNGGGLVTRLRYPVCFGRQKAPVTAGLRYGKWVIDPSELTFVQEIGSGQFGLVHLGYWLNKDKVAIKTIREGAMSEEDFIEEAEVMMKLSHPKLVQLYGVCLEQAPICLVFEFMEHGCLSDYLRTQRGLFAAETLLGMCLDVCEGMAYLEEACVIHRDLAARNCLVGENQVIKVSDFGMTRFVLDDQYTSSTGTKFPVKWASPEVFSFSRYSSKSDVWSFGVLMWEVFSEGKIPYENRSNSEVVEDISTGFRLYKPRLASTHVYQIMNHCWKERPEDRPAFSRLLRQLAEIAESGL

[2] = target: BTK (Homo sapiens, UniProt Q06187); assay: Inhibitory activity against BTK (ADP-Glo + BTK Kinase enzyme system kit)
BTK, sequence (Q06187 whole entry): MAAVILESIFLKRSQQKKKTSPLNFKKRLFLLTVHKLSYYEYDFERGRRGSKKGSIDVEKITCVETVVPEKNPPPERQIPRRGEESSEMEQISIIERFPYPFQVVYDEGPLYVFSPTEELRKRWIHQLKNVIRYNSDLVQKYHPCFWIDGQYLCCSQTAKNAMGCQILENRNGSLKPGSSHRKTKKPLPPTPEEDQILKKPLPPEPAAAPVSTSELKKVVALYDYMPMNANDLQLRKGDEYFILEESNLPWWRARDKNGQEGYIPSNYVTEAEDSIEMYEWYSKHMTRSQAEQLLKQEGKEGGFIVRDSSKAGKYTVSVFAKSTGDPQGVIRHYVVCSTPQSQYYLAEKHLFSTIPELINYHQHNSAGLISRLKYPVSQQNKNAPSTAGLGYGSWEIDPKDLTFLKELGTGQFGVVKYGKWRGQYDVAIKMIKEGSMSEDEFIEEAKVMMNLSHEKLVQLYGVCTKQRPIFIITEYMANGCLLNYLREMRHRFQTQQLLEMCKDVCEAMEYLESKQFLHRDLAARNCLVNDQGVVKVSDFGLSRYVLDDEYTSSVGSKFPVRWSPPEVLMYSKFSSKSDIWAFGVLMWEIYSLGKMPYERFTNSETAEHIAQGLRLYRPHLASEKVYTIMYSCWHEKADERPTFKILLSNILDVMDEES

SMILES | pIC50 [1] | Selectivity (based on IC50) [1] | pIC50 [2]
C=CC(=O)N1C[C@@H]2C[C@H]1[C@@H](n1nc(-c3ccc(C(=O)Nc4ccccn4)cc3Cl)c3c(N)ncnc31)C2 [Ex. 80, 4-(1-((1S,4R,6S)-2-acryloyl-2-azabicyclo[2.2.1]heptan-6-yl)-4-amino-1H-pyrazolo[3,4-d]pyrimidin-3-yl)-3-chloro-N-(pyridin-2-yl)benzamide] | 7.49 | 26.8 | 8.92
C=CC(=O)N1C[C@@H]2C[C@H]1[C@@H](n1nc(-c3ccc(C(=O)Nc4ccccn4)cc3OC)c3c(N)ncnc31)C2 [Ex. 81, 4-(1-((1S,4R,6S)-2-acryloyl-2-azabicyclo[2.2.1]heptan-6-yl)-4-amino-1H-pyrazolo[3,4-d]pyrimidin-3-yl)-3-methoxy-N-(pyridin-2-yl)benzamide] | < 6.70 | >200 | 9.00
N#CC(=CC1CC1)C(=O)N1C[C@@H]2C[C@@H]1[C@@H](n1nc(-c3ccc(C(=O)Nc4ccccn4)cc3F)c3c(N)ncnc31)C2 [Ex. 82, 4-(4-amino-1-((1R,4R,6S)-2-(2-cyano-3-cyclopropylacryloyl)-2-azabicyclo[2.2.1]heptan-6-yl)-1H-pyrazolo[3,4-d]pyrimidin-3-yl)-3-fluoro-N-(pyridin-2-yl)benzamide] | < 6.70 | 55.6 | 8.44
N#CC(=CC1CC1)C(=O)N1C[C@@H]2C[C@@H]1[C@@H](n1nc(-c3ccc(C(=O)Nc4cc(F)ccn4)cc3F)c3c(N)ncnc31)C2 [Ex. 83, 4-(4-amino-1-((1R,4R,6S)-2-(2-cyano-3-cyclopropylacryloyl)-2-azabicyclo[2.2.1]heptan-6-yl)-1H-pyrazolo[3,4-d]pyrimidin-3-yl)-3-fluoro-N-(4-fluoropyridin-2-yl)benzamide] | 6.64 | 81.7 | 8.55
C=CC(=O)N1C[C@@H]2C[C@@H]1[C@@H](n1nc(-c3ccc(C(=O)Nc4ccccn4)cc3F)c3c(N)ncnc31)C2 [Ex. 85, 4-(1-((1R,4R,6S)-2-acryloyl-2-azabicyclo[2.2.1]heptan-6-yl)-4-amino-1H-pyrazolo[3,4-d]pyrimidin-3-yl)-3-fluoro-N-(pyridin-2-yl)benzamide] | 7.22 | 37.9 | 8.80
